As a reminder, the inhibition is the relative decrease from the control value, in per cent. As usually defined, the IC50 is the concentration that inhibits the measured activity by half.

Bounds are passed on as bounds.

Here are results for three molecules from article PMC5342071, “A first generation inhibitor of human Greatwall kinase, enabled by structural and functional characterisation of a minimal kinase domain construct” (Oncotarget, 2016).

Holding throughout (format): biochemical
The target of assay [1] is T1, hGWL-KinDom (Homo sapiens, UniProt Q96GX5).
T1 construct: that encoded amino acids (aa) 1-194 + ‘RTFC’ + 740-879 of hGWL; GST (rhinovirus 3C-protease cleavable) (N, cleaved yes); made in house; host or cells: E. coli Rosetta2(DE3)
T1 sequence (Q96GX5 with tags, fused parts or gaps limits assumed): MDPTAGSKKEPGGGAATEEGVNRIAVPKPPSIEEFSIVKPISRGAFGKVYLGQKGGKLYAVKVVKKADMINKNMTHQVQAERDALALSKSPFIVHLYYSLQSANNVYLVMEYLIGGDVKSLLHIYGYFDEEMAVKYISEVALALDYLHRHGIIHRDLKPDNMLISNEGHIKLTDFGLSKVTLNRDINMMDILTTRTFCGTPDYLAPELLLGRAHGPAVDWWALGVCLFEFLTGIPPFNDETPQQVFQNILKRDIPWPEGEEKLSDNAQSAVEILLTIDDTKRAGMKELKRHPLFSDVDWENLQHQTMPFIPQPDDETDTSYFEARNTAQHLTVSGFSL
In words: Inhibitor screen of pooled library with hGWL-KinDom (Kinase-Glo Max). The conditions noted are these: for inhibition at 10 µM: 10 μM screening concentration, ATP concentration = 45 μM; for Rank in inhibitor screen: rank by potency in the screen. How it is done: Two small-molecule compound libraries, enriched with pharmacophores known to interact with the ATP-binding site of protein kinases, were screened as a pooled library in a Kinase-GloMax luminescence-kinase assay. page 4: […] Dynabeads [Sigma-Aldrich] overnight at 4 °C. After sequential washes with IP buffer, 1:1 mix of IP and kinase assay buffers and a final wash in kinase assay buffer, the beads were then used in the kinase assay. The reaction was stopped by adding SDS loading buffer and analysed by western blot: p-ENSA and GWL levels were detected using the anti-phospho([…] and […], Prestige) antibodies. Activity was measured as the […] ratio and % kinase activity was normalised to the DMSO control. All kinases assays were repeated thrice per assay condition and each point on the concentration-dependent response curves represents the mean ± 1 S.D. PKA, ROCK1 and CDK2 kinase assays PKA and ROCK1 assays (Promega) were carried out according to the manufacturer's protocols and CDK2 assays were carried out with Histone H1 as substrate (1 µg per 20 µl reaction) according to our Kinase-Glo Max assay. CDK2 was expressed and purified from E. coli as previously described (10). Inhibitor Screens with hGWL-KinDom Two small-molecule compound libraries, enriched with pharmacophores known to interact with the ATP- binding site of protein kinases, were kindly provided by GlaxoSmithKline and Roche. We used this pooled library (582 compounds, 10 µM screening concentrations) in a Kinase-Glo Max luminescence kinase assay (11, 12) as part of a two-point screen against hGWL-KinDom kinase activity, using ATP at fixed concentrations of […] With STU as positive control at a […] 4A,B). […] rate = 5.8%; Supplementary Figure 4A). Molecular Docking - AutoDock AT13148 and GKI-1/2 were docked into the ATP-binding site of the hGWL-KinDom crystal structure (where the disordered C-helix was homology-modelled) using AutoDock 4.2.6. PDB format files for the ligand and kinase domain were pre-processed using AutoDock Tools 1.5.6 as described in Mohamed, et al. (13). (Figure 4 and Supplementary Figure 6A,B). Immunofluorescence and Time-lapse video microscopy 2.5 X 105 HeLa cells were plated onto glass coverslips in a 6-well plate, or 4-well µ-slides [Ibidi GmbH] were seeded with 5 X 104 cells and then transfected with Qiagen AllStars negative control or Hs_MASTL_6 siRNAs (14) using Lipofectamine RNAiMax [ThermoFisher Scientific]. Media was exchanged with fresh media the next day. 48 hours after siRNA treatment, only cells to be used for immunofluorescence (IF) were treated with nocodazole (200 ng/mL) and DMSO or GKI-1 at the indicated concentration. For IF, cells were fixed, stained with primary mouse anti-GWL and rabbit anti-p-ENSA antibodies, secondary Alexa Fluor 647-conjugated anti- rabbit and Alexa Fluor 488-conjugated anti-mouse antibodies, DAPI and mounted onto glass microscope slides using Diamond Antifade Mountant [Molecular Probes, ThermoFisher Scientific]. Quantitation of IF images was performed using the […]-Content Screening Station [Olympus Life Science] which acquired 220, 40x images per cover slip. Data were normalised against the AllStars negative control siRNA treated cells and values obtained from three biological replicates were reported as the mean ± 1 S.D. To assist with selecting mitotic cells, ScanR imaging software was utilised to gate for mitotic cells using the circularity factor and total DAPI parameters. To produce time-lapse videos, after 48 hours and cell treatment with DMSO or compound (cells were treated with GKI-1 for 4-h before image acquisition) cells plated in 4-well µ-slides were imaged every 5 minutes for 8.5 hours on an Olympus IX73 microscope, using a 40 x 0.95NA air objective, and recorded on an Orca-Flash 4.0 CMOS camera [Hamatsu]. The computer program Fiji (http://www.fiji.sc/Fiji) was used to generate videos from image sequence TIF files. Data were normalised against the AllStars negative control siRNA treated cells and […]
On the technique in general: Kinase-Glo reads ATP consumption through a luciferase reaction.

Assay [2] concerns the target T2, PKA (Homo sapiens, UniProt P17612).
T2 construct: purchased Promega
In words: PKA kinase assay (Promega). As to conditions: for IC50: ± S.D. On the procedure:
(§1) hGWLFL, 100 µl of lysate was diluted 5-fold with IP buffer and combined with 3 µl anti-Flag M2 magnetic Dynabeads [Sigma-Aldrich] overnight at 4 °C. After sequential washes with IP buffer, 1:1 mix of IP and kinase assay buffers and a final wash in kinase assay buffer, the beads were then used in the kinase assay. The reaction was stopped by adding SDS loading buffer and analysed by western blot: p-ENSA and GWL levels were detected using the anti-phospho(Ser67)-ENSA and anti-MASTL(GWL, Prestige) antibodies. Activity was measured as the p-ENSA/GWL ratio and % kinase activity was normalised to the DMSO control. All kinases assays were repeated thrice per assay condition and each point on the concentration-dependent response curves represents the mean ± 1 S.D.
(§2) PKA, ROCK1 and CDK2 kinase assays […]
(§3) Data were normalised against the AllStars negative control siRNA treated cells and values obtained from 3 – 5 biological replicates were reported as the mean ± 1 S.D.

Assay [3] deals with T3, ROCK1 (Homo sapiens, UniProt Q13464).
T3 construct: purchased Promega
T3 sequence (Q13464 whole entry): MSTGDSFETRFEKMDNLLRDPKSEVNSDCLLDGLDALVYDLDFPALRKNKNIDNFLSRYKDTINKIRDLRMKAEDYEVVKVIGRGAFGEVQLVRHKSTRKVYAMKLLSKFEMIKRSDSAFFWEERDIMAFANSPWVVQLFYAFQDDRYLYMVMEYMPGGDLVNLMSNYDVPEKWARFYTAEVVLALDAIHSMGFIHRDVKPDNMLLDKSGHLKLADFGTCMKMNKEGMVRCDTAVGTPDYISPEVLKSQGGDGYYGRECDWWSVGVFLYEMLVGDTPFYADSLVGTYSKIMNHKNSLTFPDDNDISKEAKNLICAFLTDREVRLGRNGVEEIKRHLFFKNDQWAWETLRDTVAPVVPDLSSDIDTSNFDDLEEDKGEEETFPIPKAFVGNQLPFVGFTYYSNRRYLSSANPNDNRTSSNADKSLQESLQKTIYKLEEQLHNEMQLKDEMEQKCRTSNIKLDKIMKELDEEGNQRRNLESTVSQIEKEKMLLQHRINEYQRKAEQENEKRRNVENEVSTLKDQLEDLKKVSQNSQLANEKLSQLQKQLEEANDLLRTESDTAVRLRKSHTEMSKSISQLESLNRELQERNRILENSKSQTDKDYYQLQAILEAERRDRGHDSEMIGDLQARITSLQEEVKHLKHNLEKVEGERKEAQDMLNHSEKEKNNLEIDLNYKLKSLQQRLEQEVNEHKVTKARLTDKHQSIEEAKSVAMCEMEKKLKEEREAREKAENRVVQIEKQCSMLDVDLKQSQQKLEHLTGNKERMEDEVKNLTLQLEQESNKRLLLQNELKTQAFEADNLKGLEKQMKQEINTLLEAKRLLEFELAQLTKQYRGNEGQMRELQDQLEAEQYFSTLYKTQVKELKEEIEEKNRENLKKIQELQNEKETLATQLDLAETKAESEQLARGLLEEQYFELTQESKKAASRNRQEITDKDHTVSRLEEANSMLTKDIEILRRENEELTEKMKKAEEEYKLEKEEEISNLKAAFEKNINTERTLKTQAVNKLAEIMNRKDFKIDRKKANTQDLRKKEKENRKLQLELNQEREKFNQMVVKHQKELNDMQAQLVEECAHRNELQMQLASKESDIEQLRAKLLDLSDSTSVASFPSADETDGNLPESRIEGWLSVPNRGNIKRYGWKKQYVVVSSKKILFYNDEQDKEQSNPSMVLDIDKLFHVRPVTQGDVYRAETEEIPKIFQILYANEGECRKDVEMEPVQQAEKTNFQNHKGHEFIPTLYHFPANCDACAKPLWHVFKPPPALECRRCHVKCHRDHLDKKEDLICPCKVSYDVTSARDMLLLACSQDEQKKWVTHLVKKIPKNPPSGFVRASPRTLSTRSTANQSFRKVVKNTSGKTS
The experiment in a line: ROCK1 kinase assay (Promega). As to conditions: for IC50: ± S.D. How it is done:
as §1, §2, §3

For the molecule `CCN(CC)Cc1ccc(Nc2nccc(-c3cnn4ncccc34)n2)cc1` [GRI-4], in assay [1], the inhibition at 10 µM was 30.1%. Besides, the “Rank in inhibitor screen” value in assay [1] is reported as 8. Moreover, the results for the IC50 in assay [2] and in assay [3] were > 100 µM and 21.6 ± 5.3 µM, respectively.
For the molecule `Clc1ccc(Nc2cccc(-c3cn[nH]c3)c2)cc1` [GKI-1, N-(4-chlorophenyl)-3-(1H-pyrazol-4-yl)aniline], in assay [2], the “selectivity for hGWL^FL over PKA” value is reported as “greater than 8 fold” and the IC50 is > 40 µM. Further, in assay [3], the “selectivity for hGWL^FL over ROCK1” value is 2 fold and it took 11.3 ± 3.4 µM to reach half-maximal inhibition (IC50).
As to `CN(C)CC#Cc1cccc(C(=O)c2cnn(-c3ccc(F)cc3)c2N)c1` [GRI-3], in assay [1], the inhibition at 10 µM worked out at 39.6% and the “Rank in inhibitor screen” value is reported as 3.
